Measured values taken from patent publication US8980936B2, “Phenoxy-pyrrolidine derivative and its use and compositions” (Thesan Pharmaceuticals, Inc., priority 2007, dated 2015).
One block for each molecule: values may come before it.

Experiments:
sebum production = conditions: background statement, cited from earlier work
[1] = target: T1, stearoyl CoA desaturase (SCD1) (Rattus norvegicus, UniProt P07308); assay: Rat microsomal assay: conversion of labeled stearoyl CoA to oleoyl CoA by LC/MS/MS; format: biochemical; conditions: rat liver microsomes; 40 μM substrate (2× Km); mean of N=3; read-out: IC50, inhibition of SCD1 activity (conversion of stearoyl CoA to oleoyl CoA)
T1 construct: Rat liver microsomes are allowed to react with stearoyl-coenzyme A labeled with D3; from tissue
T1 sequence (P07308 1-358): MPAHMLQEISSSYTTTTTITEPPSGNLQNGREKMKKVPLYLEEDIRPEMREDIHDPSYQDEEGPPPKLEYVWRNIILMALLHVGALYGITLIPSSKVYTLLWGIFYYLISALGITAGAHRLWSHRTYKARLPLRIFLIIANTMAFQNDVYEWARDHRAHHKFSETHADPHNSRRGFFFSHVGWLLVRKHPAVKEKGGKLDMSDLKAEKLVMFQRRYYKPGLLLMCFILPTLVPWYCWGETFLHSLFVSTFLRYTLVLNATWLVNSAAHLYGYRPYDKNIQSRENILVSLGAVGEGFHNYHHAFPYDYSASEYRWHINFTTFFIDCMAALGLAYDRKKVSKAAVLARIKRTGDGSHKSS
Experimental: As described below, the assay measures the conversion of labeled stearoyl CoA to oleoyl CoA using LC/MS/MS.
In order to increase SCD1 activity in rat liver microsomes, Sprague Dawley rats are fasted for 40 hours. Following fasting diet is replaced with free fatty acid deficient chow ad libitum for 48 hours. Rats are then euthanized using CO2 asphyxiation and their livers are removed. Livers are weighed, minced and placed in homogenization buffer ([…], 50 mM Tris-HCl, pH 7.5, 5 mM EDTA, 1.5 mM GSH) on ice. Microsomes are isolated by homogenization with a polytron and several centrifugation steps. Following final centrifugation, the resulting pellet is resuspended in homogenization buffer and protein concentration is determined. Aliquots are stored at −80° C. until use.
Rat liver microsomes are allowed to react with stearoyl-coenzyme A labeled with D3 in the presence of the compound of Formula I to test the compound's ability to inhibit the conversion of stearoyl-coenzyme A to oleoyl coenzyme A. The reaction is terminated using acetonitrile. Free fatty acids are extracted by saponification of the samples with 2M KOH at 70° C. […] Samples are reconstituted in 9:1 Methanol:Water, with 2 ug/ml heptadecanoic acid added as an internal standard, and analyzed by LC/MS/MS. The ability to inhibit the conversion of stearoyl CoA to oleoyl CoA is expressed as an IC50.

[2] = target: T2, SCD1 enzyme in intact human cells (Homo sapiens, UniProt O00767); assay: Human adipocyte (AdipoRed) assay: production of triglycerides; format: cell-based; conditions: differentiated human subcutaneous adipocytes; 6 days compound treatment; mean of N=6; read-out: IC50, inhibition of the production of triglycerides
T2 construct: The cells were received as pre-adipocytes and then differentiated for 5 days in a 384 well format; host or cells: cryopreserved human subcutaneous preadipocytes, differentiated to adipocytes
T2 sequence (O00767 1-359): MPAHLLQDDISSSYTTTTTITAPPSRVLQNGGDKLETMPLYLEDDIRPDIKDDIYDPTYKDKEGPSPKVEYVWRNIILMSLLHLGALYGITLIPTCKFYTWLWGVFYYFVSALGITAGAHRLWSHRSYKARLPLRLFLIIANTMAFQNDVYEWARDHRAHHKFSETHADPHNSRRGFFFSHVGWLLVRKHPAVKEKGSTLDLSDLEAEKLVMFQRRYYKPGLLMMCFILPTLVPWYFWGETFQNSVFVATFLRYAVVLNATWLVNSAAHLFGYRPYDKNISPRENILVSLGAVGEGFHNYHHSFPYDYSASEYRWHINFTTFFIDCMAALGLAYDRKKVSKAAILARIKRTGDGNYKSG
Experimental: The role of SCD1 is believed to be similar in adipocytes and sebocytes. The ability of the compound to inhibit the SCD1 enzyme in intact human cells was determined using the Human AdipoRed assay as described below. The cells were received as pre-adipocytes and then differentiated for 5 days in a 384 well format. The compound is added at various concentrations for 6 days. The production of triglycerides was then assessed by a unique dye which specifically binds to secreted triglycerides. The ability to inhibit the production of triglycerides is expressed as an IC50.
Cryopreserved subcutaneous preadipocytes (Cat #: PT-5001 Supplier: Cambrex Bio Science) were briefly thawed in 37 C and spin down at 1000 rpm for 5 minutes. Preadipocyte are resuspended in 30 ml of Growth Media (GM, Cat #: PT-8202 Cambrex Bio Science) and are diluted to final concentration of 75,000 cells/ml. 40 μl of Cells are then plated into wells of 384-Well BD Falcon polystyrene assay plate at the density of 3,000 cells (40 μl) per well. […]
After 5 days' differentiation, cells were treated with 2 μl of the compound from 96-well compound plate in duplicate by Biomek FX. […] The accumulation of intracellular triglycerides is then quantified by measuring fluoresce at 572 nm on a SpectraMax M5 microplate reader.

male Syrian hamsters = assay: Hamster ear model: inhibition of sebum production; format: in vivo, Syrian hamster
Text: The hamster ear model is a validated animal model for testing whether compounds are capable of modulating sebaceous gland function and sebum secretion. Luderschmidt et al, Arch. Derm. Res. 258, 185-191 (1977). This model uses male Syrian hamsters, whose ears contain sebaceous glands. The compound of the invention was screened in this model according to the procedure outlined below. In these studies, the hamsters are topically dosed twice daily (BID) for 2 weeks, 5 days a week (Monday to Friday). Each dose consisted of 25 μl of vehicle control or formulated test article, which was evenly applied to ˜3 cm^2 of the ventral surfaces of both the right and left ears. At sacrifice, skin punches are taken for lipid analysis, histology and skin concentrations of the test compound.
Male Syrian hamsters aged 9 to 10 weeks were introduced into the laboratory environment and acclimated for 2 weeks prior to use in the study. Each group consisted of 5 animals and run in parallel with vehicle and positive controls. […]
Animals were dosed topically twice daily, five days a week, for 2 weeks. Each dose consisted of 25 μl of vehicle control or drug. The dose was applied to the ventral surfaces of both the right and left ears. All animals were sacrificed approximately 18-24 hours after the final dose. The right ears were collected from each animal and used for sebum analysis.
The ears were prepped for HPLC analysis in the following manner. One 8 mm distal biopsy punch was taken, just above the anatomical “V” mark in the ear to normalize the sample area. The punch was pulled apart. The ventral biopsy surface (the area where the topical dose was directly applied to the sebaceous glands) was retained for testing and the dorsal surface of the biopsy punch was discarded.
Tissue samples were blown with N2 gas and stored at −80° C. under nitrogen until HPLC analysis. In addition to ear samples, an aliquot of each drug and vehicle (at least 250 μl) was also stored at −80° C. for inclusion in the HPLC analysis.
HPLC analysis was carried out on an extract of the tissue sample. Tissue samples were contacted with 3 ml of solvent (a 4:1 admixture of 2,2,4-trimethylpentane and isopropyl alcohol). The mixture was shaken for 15 minutes and stored overnight at room temperature, protected from light. The next morning 1 milliliter of water was added to the sample and shaken for 15 minutes. The sample was then centrifuged at approximately 1500 rpm for 15 minutes. Two ml of the organic phase (top layer) was transferred to a glass vial, dried at 37° C., under nitrogen, for approximately 1 hour, and then lyophilized for approximately 48 hours. The samples were then removed from the lyophilizer and each vial was reconstituted with 600 μl of solvent A (trimethylpentane/tetrahydrofuran (99:1). The samples were then recapped and vortexed for 5 minutes.
200 μl of each sample was then transferred to a pre-labeled 200 μl HPLC vial with 200 μL glass inserts. The HPLC vials were placed in the autosampler tray for the Agilent 1100 series HPLC unit. The Agilent 1100 HPLC system consisted of a thermostated autosampler, a quaternary pump, a column heater, and an A/D interface module. All components were controlled by Agilent ChemStation software. A Waters Spherisorb S3W […] analytical column was maintained at 30° C. by the Agilent column heater unit. The HPLC autosampler was programmed to maintain the sample temperature at 20° C. throughout the run.
10 μL of each sample was injected in triplicate into the column. Two solvents were used for the solvent gradient. Solvent A was an admixture of trimethylpentane and tetrahydrofuran (99:1). Solvent B was ethyl acetate. The gradient utilized is described in the table below: […]
The Sedex 75 Evaporative Light Scattering Detector (ELSD) was operated at 45° C. with a gain of 5, and N2 pressure maintained at 3.1 bar. Analog signal obtained by the instrument was sent to the Agilent A/D interface module where it was converted to a digital output. […]

[3] = dose response experiment, formulated in propylene glycol:ethanol 30.70 (w/v), topical
[4] = dosed at 1.5% in propylene glycol/transcutanol/ethanol 20/20/60, topical BID, 2 weeks, hamster ear
[5] = two week topical BID application, propylene glycol:ethanol 30.70

SMILES: CCOC(=O)/C=C(C)/C=C/C=C(C)/C=C/c1c(C)cc(OC)c(C)c1C [etretinate]
- effect on sebum synthesis (sebum production; Zouboulis 2004): do not reduce sebum synthesis

SMILES: CC1=C(/C=C/C(C)=C/C=C/C(C)=C\C(=O)O)C(C)(C)CCC1 [Isotretinoin]
- suppression of sebum production (sebum production): up to 90%

- IC50 [1]: 5.8 nM
- IC50 [2]: 6.8 nM
SMILES: O=C(COc1ccc(CO)cc1)N1CC[C@H](Oc2ccccc2C(F)(F)F)C1 [compound of Formula I, (S)-2-(4-(hydroxymethyl)phenoxy)-1-(3-(2-(trifluoromethyl)phenoxy)pyrroli-din-1-yl)ethanone]
- CE and WE production, dose response (male Syrian hamsters; [3]): dose dependent decrease of both CE and WE production
- sebaceous gland size and number, histology (male Syrian hamsters; [3]): Dose related changes in sebaceous gland size and number
- reduction in cholesterol ester (CE) compared to vehicle control (male Syrian hamsters; [4]): 62%
- reduction in wax ester (WE) compared to vehicle control (male Syrian hamsters; [4]): 82%
- sebaceous gland size (male Syrian hamsters; [4]): reduction in sebaceous gland size
- ED50 based on WE reduction (male Syrian hamsters; [5]): 0.3%
- ED50 based on WE reduction, per area (male Syrian hamsters; [5]): 0.025 mg/cm^2
